Measurements reported in ChEMBL document CHEMBL5236596, “Discovery and Optimization of N-Acyl-6-sulfonamide-tetrahydroquinoline Derivatives as Novel Non-Steroidal Selective Glucocorticoid Receptor Modulators” (J Med Chem, 2022).
pIC50: −log10 of the molar value.

Legend:
[1] = Inhibition of LPS-induced IL-6 secretion in mouse primary peritoneal macrophages by ELISA; format: functional, cell-based; conditions: Peritoneal macrophage
[2] = Inhibition of LPS-induced TNF-alpha secretion in mouse primary peritoneal macrophages by ELISA; format: functional, cell-based; conditions: Peritoneal macrophage
[3] = biological target: T1, Glucocorticoid receptor (Homo sapiens, UniProt P04150); test: Binding affinity to glucocorticoid receptor (unknown origin) by Lanthascreen TR-FRET competition binding assay
T1 sequence (P04150 whole entry): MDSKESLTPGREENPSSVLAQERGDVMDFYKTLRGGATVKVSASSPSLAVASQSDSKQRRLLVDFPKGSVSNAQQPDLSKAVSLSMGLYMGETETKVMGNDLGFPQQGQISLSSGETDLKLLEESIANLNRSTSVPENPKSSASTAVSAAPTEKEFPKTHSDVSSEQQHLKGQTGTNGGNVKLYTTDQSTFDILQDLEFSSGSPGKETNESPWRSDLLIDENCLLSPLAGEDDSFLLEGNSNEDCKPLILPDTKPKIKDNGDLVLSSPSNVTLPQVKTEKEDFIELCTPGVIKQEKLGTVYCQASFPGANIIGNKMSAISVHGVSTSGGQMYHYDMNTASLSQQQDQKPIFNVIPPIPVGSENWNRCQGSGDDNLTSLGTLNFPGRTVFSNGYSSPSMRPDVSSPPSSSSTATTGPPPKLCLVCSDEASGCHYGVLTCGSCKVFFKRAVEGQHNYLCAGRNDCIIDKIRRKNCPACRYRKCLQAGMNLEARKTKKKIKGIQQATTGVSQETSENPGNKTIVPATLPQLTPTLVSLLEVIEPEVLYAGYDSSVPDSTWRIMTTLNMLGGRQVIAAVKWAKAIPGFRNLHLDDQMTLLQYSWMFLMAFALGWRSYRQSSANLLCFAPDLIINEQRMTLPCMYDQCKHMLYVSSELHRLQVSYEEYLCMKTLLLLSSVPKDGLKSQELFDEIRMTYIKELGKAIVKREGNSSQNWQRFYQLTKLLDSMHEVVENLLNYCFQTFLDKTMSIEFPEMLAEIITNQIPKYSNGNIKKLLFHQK

[4] = biological target: T1, Glucocorticoid receptor; test: Modulation of glucocorticoid receptor (unknown origin) transfected in human HeLa cells assessed as transrepression by measuring inhibition of TNF-alpha induced NF-kappaB signalling incubated for 18 hrs by dual-luciferase reporter based assay; format: cell-based
[5] = biological target: T1, Glucocorticoid receptor; test: Modulation of glucocorticoid receptor (unknown origin) transfected in human HeLa cells assessed as transrepression by measuring inhibition of PMA-induced AP-1 signalling incubated for 18 hrs by dual-luciferase reporter based assay; format: cell-based
[6] = biological target: T1, Glucocorticoid receptor; test: Antagonist activity at glucocorticoid receptor (unknown origin) transfected in human HeLa cells assessed as inhibition of dexamethasone-induced transactivation of receptor incubated for 18 hrs by firefly luciferase assay; format: cell-based
[7] = system: NIH3T3; test: Cytotoxicity against mouse 3T3 cells assessed as inhibition of cell growth; format: toxicity, cell-based
[8] = system: GES1; test: Cytotoxicity against human GES1 cells assessed as inhibition of cell growth; format: toxicity, cell-based
[9] = Cmax in BALB/c mouse at 10 mg/kg, po; format: ADME, organism-based; set-up: dose 10 mg/kg, route po; conditions: in vivo
[10] = Tmax in BALB/c mouse at 10 mg/kg, po; format: ADME, organism-based; conditions: in vivo
[11] = Half life in BALB/c mouse at 10 mg/kg, po; format: ADME, organism-based; conditions: in vivo
[12] = Oral bioavailability in BALB/c mouse at 10 mg/kg; format: ADME, organism-based; conditions: in vivo
[13] = Toxicity in DNCB-induced BALB/c atopic dermatitis mouse model assessed as reduction in body weight at 5 to 20 mg/kg, po administered via gavage for 21 consecutive days starting from day 4 post DNCB stimulation; format: organism-based; conditions: in vivo, 504 h, dose 5-20 mg/kg, time 21 day
[14] = Toxicity in DNCB-induced BALB/c atopic dermatitis mouse model assessed as body weight gain at 1 mg/kg, po administered via gavage for 21 consecutive days starting from day 4 post DNCB stimulation; format: organism-based; conditions: in vivo, 504 h, time 21 day
[15] = Cytotoxicity against human Chang liver cells assessed as inhibition of cell growth; format: toxicity, cell-based

COc1ccc(C(=O)/C=C/c2cccc(OC)c2OC)cc1
pIC50 [1]: 5.00 | pIC50 [2]: 5.00

COc1cc(C)c(Cl)cc1S(=O)(=O)Nc1ccc2c(c1)CCCN2C(C)=O
pIC50 [3]: 5.50 | pIC50 [4]: 6.33 | pIC50 [5]: 5.57 | pIC50 [6]: 4.92

COc1ccc(C(=O)N2CCCc3cc(NS(=O)(=O)c4cc(Cl)c(C)cc4OC)ccc32)cc1OC
pIC50 [3]: 5.46 | pIC50 [4]: 6.35 | pIC50 [5]: 5.88

CCCCc1ccc(C(=O)N2CCCc3cc(NS(=O)(=O)c4cc(Cl)c(C)cc4OC)ccc32)cc1
pIC50 [3]: < 4.30 | pIC50 [4]: 7.00 | pIC50 [5]: < 5.00

COC(=O)c1ccc(C(=O)N2CCCc3cc(NS(=O)(=O)c4cc(Cl)c(C)cc4OC)ccc32)cc1
pIC50 [3]: < 4.30 | pIC50 [4]: 6.15 | pIC50 [5]: 5.57

COc1cc(C)c(Cl)cc1S(=O)(=O)Nc1ccc2c(c1)CCCN2C(=O)c1ccccc1
pIC50 [3]: 5.72 | pIC50 [4]: 8.05 | pIC50 [5]: 6.89 | pIC50 [6]: 4.72 | pIC50 [1]: 5.16 | pIC50 [2]: 5.11 | Activity [7]: Non-Toxic | Activity [8]: Non-Toxic | Cmax [9]: 394 ng/mL | Tmax [10]: 5 min | half-life [11]: 30 min | bioavailability [12]: 19.8% | Activity [13]: Non-Toxic

COc1cc(C)c(Cl)cc1S(=O)(=O)Nc1ccc2c(c1)CCCN2C(=O)c1ccc(F)cc1
pIC50 [3]: 5.16 | pIC50 [4]: 6.46 | pIC50 [5]: 5.56 | pIC50 [6]: 4.85

O=C(c1ccco1)N1CCCc2cc(NS(=O)(=O)CCc3ccccc3)ccc21
pIC50 [3]: < 5.00 | pIC50 [4]: < 5.00 | pIC50 [5]: 5.19 | pIC50 [6]: < 5.00

COc1cc(C)c(Cl)cc1S(=O)(=O)Nc1ccc2c(c1)CCCN2C(=O)N(C)C
pIC50 [3]: 5.56 | pIC50 [4]: 7.30 | pIC50 [5]: 6.28 | pIC50 [6]: 4.56

C[C@@H]1C[C@H]2[C@@H]3CCC4=CC(=O)C=C[C@]4(C)[C@@]3(F)[C@@H](O)C[C@]2(C)[C@@]1(O)C(=O)CO [DEXAMETHASONE]
Activity [8]: Non-Toxic | Activity [14]: Non-Toxic

CC(C)[C@H](NC(=O)C(C)(F)F)[C@H](Oc1ccc2c(cnn2-c2ccc(=O)n(C)c2)c1)c1ccccc1 [MIZACORAT]
Activity [7]: Toxic | Activity [8]: Toxic | Activity [15]: Toxic
